Laboratory results reported in US7919101B2 (priority 2008, dated 2011).
Read-outs that look alike come from different tables or passages of the source. Residues, ends and D or L forms follow the SMILES beside them. No end group written: not given here.

Assays:
gp41 6-HB formation = gp41 6-HB formation (Human immunodeficiency virus type 1 group M subtype B, UniProt P04578); conditions: cited from earlier work
HIV-1 = conditions: cited from earlier work
[1] = tested on: HIV-1 Env-mediated cell-cell fusion; conditions: cited from earlier work
[2] = tested on: HIV-1-mediated cell-cell fusion (H9/HIV-1IIIB cells and MT-2 cells); test: HIV-1-mediated cell-cell fusion, dye transfer assay; type: cell-based
Protocol: The inhibitory activities of the compounds on HIV-induced cell-cell fusion were determined using a dye transfer assay (Jiang S et al. Proc SPIE 3926:212-219, 2000). Briefly, H9/HIV-1IIIB cells were pre-labeled with a fluorescent dye, Calcein AM (Molecular Probes, Inc.), and incubated with a testing compound at a graded concentration at 37° C. for 30 min in a 96-well cell culture plate. Then the CD4^+ MT-2 cells were added to the H9/HIV-1IIIB cells at a ratio of 10:1, followed by incubation at 37° C. for 2 hrs. The fused and unfused calcein-labeled HIV-1-infected cells were counted under an inverted fluorescence microscope with an eyepiece micrometer disc.

[3] = cited from earlier work
[4] = in combination T-20:Sifuvirtide (4:1)
[5] = in combination T-20:Sifuvirtide (4:1) vs alone

Chain of gp41 6-HB formation (P04578 546-581): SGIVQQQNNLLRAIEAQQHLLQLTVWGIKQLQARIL

COc1ccc(S(=O)(=O)[O-])cc1N=Nc1c(S(=O)(=O)[O-])cc2cc(Nc3nc(Nc4ccccc4)nc(Nc4cc(C)c(N=Nc5cc(S(=O)(=O)[O-])cc6cc(S(=O)(=O)[O-])cc(O)c56)cc4OC)n3)ccc2c1O.[Na+].[Na+].[Na+].[Na+] [ADS-J1]
EC50, gp41 6-HB formation (in words) (gp41 6-HB formation): low μM range
EC50, HIV infection / replication (in words) (HIV-1): low μM range
EC50, HIV-1 mediated cell-cell fusion (in words) [1]: low μM range

CC[C@H](C)[C@H](NC(=O)[C@H](CCC(=O)O)NC(=O)[C@H](CCCNC(=N)N)NC(=O)[C@H](CCC(=O)O)NC(=O)[C@H](Cc1c[nH]c2ccccc12)NC(=O)[C@@H](NC(=O)[C@H](CCC(=O)O)NC(=O)[C@H](Cc1c[nH]c2ccccc12)NC(=O)[C@@H](N)CO)[C@@H](C)O)C(=O)N[C@@H](CCC(=O)O)C(=O)N[C@@H](CC(N)=O)C(=O)N[C@@H](Cc1ccc(O)cc1)C(=O)N[C@H](C(=O)N[C@@H](CCCCN)C(=O)N[C@@H](CCC(N)=O)C(=O)N[C@H](C(=O)N[C@@H](Cc1ccc(O)cc1)C(=O)N[C@@H](CCCCN)C(=O)N[C@H](C(=O)N[C@@H](CC(C)C)C(=O)N[C@@H](CCC(=O)O)C(=O)N[C@@H](CCC(=O)O)C(=O)N[C@@H](CO)C(=O)N[C@@H](CCC(N)=O)C(=O)N[C@@H](CCC(=O)O)C(=O)N[C@@H](CCC(N)=O)C(=O)N[C@@H](CCC(N)=O)C(=O)N[C@@H](CC(=O)O)C(=O)N[C@@H](CCCNC(=N)N)C(=O)N[C@@H](CC(N)=O)C(=O)N[C@@H](CCC(=O)O)C(=O)N[C@@H](CCCCN)C(=O)N[C@@H](CC(=O)O)C(=O)N[C@@H](CC(C)C)C(=O)N[C@@H](CC(C)C)C(=O)N[C@@H](CCC(=O)O)C(=O)O)[C@@H](C)CC)[C@@H](C)CC)[C@@H](C)O [Sifuvirtide] (H-SWETWEREIENYTKQIYKILEESQEQQDRNEKDLLE-OH; N-terminus and C-terminus assumed)
EC70 Concentration Mix [2, 4]: 0.589 nM
EC95 Concentration Mix [2, 4]: 0.884 nM
Potency increase at EC50 [2, 5]: 35.424 fold
Potency increase at EC70 [2, 5]: 35.075 fold
Potency increase at EC90 [2, 5]: 34.771 fold
Potency increase at EC95 [2, 5]: 34.564 fold
EC50 ([2]; in combination T-20:Sifuvirtide (4:1), read-out: EC50 Concentration Mix): 0.462 nM
EC90 ([2]; in combination T-20:Sifuvirtide (4:1), read-out: EC90 Concentration Mix): 0.75 nM
EC70 Concentration Alone ([2]; peptide tested alone): 20.659 nM
EC95 Concentration Alone ([2]; peptide tested alone): 30.555 nM
EC50 ([2]; peptide tested alone, read-out: EC50 Concentration Alone): 16.4 nM
EC90 ([2]; peptide tested alone, read-out: EC90 Concentration Alone): 26.1 nM
decay half-life ([3]; multiple administration): 26.0 ± 7.9 h
decay half-life ([3]; single administration): 20.0 ± 8.6 h

NHR-peptide, disulfide-stabilized helical trimer; SEQ ID NO:48 SGIVQQQNNLLRAIEAQQHLLQLTVWGIKQCCGR (not fully specified (bridges); also: disulfide-stabilized helical trimer) [N34ccg]
EC50 ([1]; read-out: EC50, HIV-induced cell-cell fusion): 95 nM

short all D-amino acid peptide; SEQ ID NO:24 KGACELLGWEWAWLCAA [D10-p5-2K]
EC50, HIV infection / replication (in words) (HIV-1): low micromolar range

short all D-amino acid peptide; SEQ ID NO:25 KGACDYPEWQWLCAA [PIE7]
EC50, HIV infection / replication (in words) (HIV-1): low micromolar range
